Test results taken from US6673839B1, “Pharmaceutical compositions with antitumour activity” (Universita' Degli Studi di Catania, priority 1998, dated 2004).
Counter-ions that a name gives are not always drawn.

What was measured:
[1] = system: Cells from Nasopharynx Carcinoma Explant; assay: In vitro short-term chemosensitivity assay (MTT); type: cell-based, human; conditions: Table 1, 24 h
Protocol: The effects of L-aC on cells from 4 primitive epidermoid carcinomas of the larynx and 1 primitive undifferentiated carcinoma of the nasopharynx were tested.
Tissue fragments from the tumour mass were mechanically dissociated in Hank's solutions adding an antibiotic and an antifungal to obtain a cell monosuspension free of agglomerates. The resulting suspension was centrifuged at 1200 rpm for 5 minutes and the pellet was resuspended in MEM culture medium supplemented with 10% of patient serum, to obtain a concentration of 10^5 cells/ml. Subsequently, 180 μl of the resulting suspension were dispensed in microplate wells and incubated under 5% CO2 atmosphere at 37° C. for 3 days. After that, the antitumor medicaments were added in the amount of 20 μl for each well, at a concentration of 0.1×, 1× and 10× the maximum serum concentrations that can usually be reached in clinical practice. 24 h after the beginning of the exposure to the antitumour medicament, 100 μl of MTT were added, and after 4 h, a further 150 μl of dimethylsulfoxide were added.
The optical density was evaluated by a Uniscan microspectrophotometer with a […] wavelength filter. Cytotoxicity was evaluated as percentage of the optical density of the treated sample compared with the optical density of the control.
Bleomycin (BLEC), […] (CDDP), 5-fluoruracil (5-FU), vincristine (VCR), epidoxorubicin (Epi-Dx) and methotrexate (MTX) were tested for comparison purposes.
L-aC was tested at the following concentrations: 0.2-2-20 mg/ml.
In vitro short-term chemosensitivity assay (according to Hill and coll.)
(Cell Vitality Percentage After Exposure to the Antitumoral)—Raw Data
(Cells from Nasopharynx Carcinoma Explant)

[2] = system: Yoshida ascitogenic tumour; assay: Sprague-Dowley rats inoculated with Yoshida ascitogenic tumour, treatment; type: in vivo; parameters: surviving animals (mortality curve): unit not given here
Protocol: Yoshida tumour is a transplantable, ascitogenic experimental tumour consisting of histiocyte-like immortalized cells.
The tumour causes, on the average 7 days after the intraperitoneal inoculation in Sprague-Dowley rat, the formation of 120-150 ml of ascites which reappears 3-4 days after complete emptying of the peritoneal cavity and induces death of all the animals within 14-16 days after inoculation.
300 Sprague-Dowley rats (4 months old, mean weight: 200 g), under standard feeding and temperature conditions (25° C.), were inoculated with Yoshida tumour. The onset and evolution of the tumour were checked by daily observation and weighing. One week after the inoculation of the tumour, rats were divided in 6 groups and treated as follows:
Group 1: 50 rats were subjected, on day 8 to 14, to daily emptying of 5 ml of ascitic fluid which was substituted with 5 ml of saline solution;
Group 2: 50 rats were subjected, on day 8 to 14, to daily emptying of 5 ml of ascitic fluid which was substituted with 50 mg of L-aC diluted in 5 ml of saline solution;
Group 3: 25 rats were subjected, on day 8 to 14, to daily emptying of 5 ml of ascitic fluid which was substituted with 80 mg of L-aC diluted in 5 ml of saline solution;
Group 4: 25 rats were subjected, on day 8 to 14, to daily emptying of 5 ml of ascitic fluid which was substituted with 120 mg of L-aC diluted in 5 ml of saline solution;
Group 5: 100 rats were subjected, on day 8 to 14, to evacuation on alternate days of 5 ml of ascitic fluid which was substituted with 25 mg of L-aC diluted in 5 ml of saline solution;
Group 6: 50 rats were used as control and received no treatment.

[3] = system: multirecurrent urinary bladder neoplasia; assay: Patients with urinary bladder multirecurrent neoplasia treated orally; type: in vivo, human
Description: 10 patients, 8 males and 2 females, of age from 55 to 75 years, all affected with multirecurrent urinary bladder neoplasia, at stages ranging from pT1G1NxMx and pT2G3NxMx, were orally treated with L-aC, at a standard dosage of 2 g/day, for a time from 10 to 12 months. They were then subjected to follow-up ranging from 6 to 22 months.
Before treatment with L-aC, patients had undergone an individual number of endoscopic resections (Turb), varying from 6 to 19 and in 1 case partial cystectomy with ureterocystoneostomy had been performed.
In all patients, treatment with L-aC started immediately after endoscopic resection.
Patients were subjected to quarterly endoscopic verification for the first year from the beginning of the treatment.
After 4 negative quarterly controls, the endoscopic control was performed every six months for a duration of 2 years.

CC(=O)OC(CC(=O)[O-])C[N+](C)(C)C [L-aC, L-acetylcarnitine hydrochloride]
Cell Vitality Percentage After Exposure ([1]; 0.1x maximum clinical serum concentration (L-aC tested at 0.2-2-20 mg/ml)): 58%
Cell Vitality Percentage After Exposure ([1]; 1x maximum clinical serum concentration): 4.8%
Cell Vitality Percentage After Exposure ([1]; 10x maximum clinical serum concentration): 4%
necroscopy finding ([2]; 6 animals sacrified at end of observation): no presence of the disease
animals died during further treatment ([2]; 47 Group 5 survivors treated a further 2 weeks): 21
surviving animals (mortality curve) ([2]; Group 2, 50 mg lac i.p. daily day 8-14, day 0 transplant): 50
surviving animals (mortality curve) ([2]; Group 2, 50 mg lac i.p. daily day 8-14, day 1): 50
surviving animals (mortality curve) ([2]; Group 2, 50 mg lac i.p. daily day 8-14, day 2): 50
surviving animals (mortality curve) ([2]; Group 2, 50 mg lac i.p. daily day 8-14, day 3): 50
surviving animals (mortality curve) ([2]; Group 2, 50 mg lac i.p. daily day 8-14, day 4): 50
surviving animals (mortality curve) ([2]; Group 2, 50 mg lac i.p. daily day 8-14, day 5): 50
surviving animals (mortality curve) ([2]; Group 2, 50 mg lac i.p. daily day 8-14, day 6): 50
surviving animals (mortality curve) ([2]; Group 2, 50 mg lac i.p. daily day 8-14, day 7): 50
surviving animals (mortality curve) ([2]; Group 2, 50 mg lac i.p. daily day 8-14, day 8): 42
surviving animals (mortality curve) ([2]; Group 2, 50 mg lac i.p. daily day 8-14, day 9): 32
surviving animals (mortality curve) ([2]; Group 2, 50 mg lac i.p. daily day 8-14, day 10): 21
surviving animals (mortality curve) ([2]; Group 2, 50 mg lac i.p. daily day 8-14, day 11): 17
surviving animals (mortality curve) ([2]; Group 2, 50 mg lac i.p. daily day 8-14, day 12): 12
surviving animals (mortality curve) ([2]; Group 2, 50 mg lac i.p. daily day 8-14, day 13): 5
surviving animals (mortality curve) ([2]; Group 2, 50 mg lac i.p. daily day 8-14, day 14): 0
day after inoculation by which all animals died ([2]; Group 2, 50 rats, 50 mg L-aC i.p. daily day 8 to 14): ≤ 14 days
surviving animals (mortality curve) ([2]; Group 3, 80 mg lac i.p. daily from day 8, day 0 transplant): 25
surviving animals (mortality curve) ([2]; Group 3, 80 mg lac i.p. daily from day 8, day 1): 25
surviving animals (mortality curve) ([2]; Group 3, 80 mg lac i.p. daily from day 8, day 2): 25
surviving animals (mortality curve) ([2]; Group 3, 80 mg lac i.p. daily from day 8, day 3): 25
surviving animals (mortality curve) ([2]; Group 3, 80 mg lac i.p. daily from day 8, day 4): 25
surviving animals (mortality curve) ([2]; Group 3, 80 mg lac i.p. daily from day 8, day 5): 25
surviving animals (mortality curve) ([2]; Group 3, 80 mg lac i.p. daily from day 8, day 6): 25
surviving animals (mortality curve) ([2]; Group 3, 80 mg lac i.p. daily from day 8, day 7): 25
surviving animals (mortality curve) ([2]; Group 3, 80 mg lac i.p. daily from day 8, day 8): 12
surviving animals (mortality curve) ([2]; Group 3, 80 mg lac i.p. daily from day 8, day 9): 5
surviving animals (mortality curve) ([2]; Group 3, 80 mg lac i.p. daily from day 8, day 10): 0
time after 1st administration by which all animals died ([2]; Group 3, 25 rats, 80 mg L-aC i.p.): ≤ 72 h
day after inoculation by which all animals died ([2]; Group 3, 25 rats, 80 mg L-aC i.p. daily from day 8): ≤ 10 days
surviving animals (mortality curve) ([2]; Group 4, 120 mg lac i.p. daily from day 8, day 0 transplant): 25
surviving animals (mortality curve) ([2]; Group 4, 120 mg lac i.p. daily from day 8, day 1): 25
surviving animals (mortality curve) ([2]; Group 4, 120 mg lac i.p. daily from day 8, day 2): 25
surviving animals (mortality curve) ([2]; Group 4, 120 mg lac i.p. daily from day 8, day 3): 25
surviving animals (mortality curve) ([2]; Group 4, 120 mg lac i.p. daily from day 8, day 4): 25
surviving animals (mortality curve) ([2]; Group 4, 120 mg lac i.p. daily from day 8, day 5): 25
surviving animals (mortality curve) ([2]; Group 4, 120 mg lac i.p. daily from day 8, day 6): 25
surviving animals (mortality curve) ([2]; Group 4, 120 mg lac i.p. daily from day 8, day 7): 25
surviving animals (mortality curve) ([2]; Group 4, 120 mg lac i.p. daily from day 8, day 8): 0
time from 1st administration by which all animals died ([2]; Group 4, 25 rats, 120 mg L-aC i.p.): ≤ 24 h
day after inoculation by which all animals died ([2]; Group 4, 25 rats, 120 mg L-aC i.p. from day 8): ≤ 8 days
surviving animals (mortality curve) ([2]; Group 5, 25 mg lac i.p. alternate days day 8-14, day 0 transplant): 100
surviving animals (mortality curve) ([2]; Group 5, 25 mg lac i.p. alternate days day 8-14, day 1): 100
surviving animals (mortality curve) ([2]; Group 5, 25 mg lac i.p. alternate days day 8-14, day 2): 100
surviving animals (mortality curve) ([2]; Group 5, 25 mg lac i.p. alternate days day 8-14, day 3): 100
surviving animals (mortality curve) ([2]; Group 5, 25 mg lac i.p. alternate days day 8-14, day 4): 100
surviving animals (mortality curve) ([2]; Group 5, 25 mg lac i.p. alternate days day 8-14, day 5): 100
surviving animals (mortality curve) ([2]; Group 5, 25 mg lac i.p. alternate days day 8-14, day 6): 100
surviving animals (mortality curve) ([2]; Group 5, 25 mg lac i.p. alternate days day 8-14, day 7): 96
surviving animals (mortality curve) ([2]; Group 5, 25 mg lac i.p. alternate days day 8-14, day 8): 91
surviving animals (mortality curve) ([2]; Group 5, 25 mg lac i.p. alternate days day 8-14, day 9): 83
surviving animals (mortality curve) ([2]; Group 5, 25 mg lac i.p. alternate days day 8-14, day 10): 79
surviving animals (mortality curve) ([2]; Group 5, 25 mg lac i.p. alternate days day 8-14, day 11): 61
surviving animals (mortality curve) ([2]; Group 5, 25 mg lac i.p. alternate days day 8-14, day 12): 50
surviving animals (mortality curve) ([2]; Group 5, 25 mg lac i.p. alternate days day 8-14, day 13): 48
surviving animals (mortality curve) ([2]; Group 5, 25 mg lac i.p. alternate days day 8-14, day 14): 47
animals still alive ([2]; Group 5, 100 rats, 25 mg L-aC i.p. alternate days, day 15 after inoculation): 47
ascites amount in survivors ([2]; Group 5, day 15 after inoculation): remarkable reduction of the ascites amount
general condition of survivors ([2]; Group 5, day 28): good health
ascitic fluid in survivors ([2]; Group 5, day 28 after inoculation): complete disappearance of the ascitic fluid
deaths during further observation ([2]; Group 5 survivors, further 6 weeks): no deaths occurred
animals still alive ([2]; of 47 Group 5 survivors, day 28 after inoculation): 26
disease status at follow-up ([3]; 2 patients completed follow-up, 6 still under study): free from the disease
endoscopic control for tumour ([3]; 10 patients, oral 2 g/day 10 to 12 months after endoscopic resection, first and subsequent quarterly controls): all patients were negative for the tumour
hematochemical parameters and side effects during treatment ([3]; oral 2 g/day, 10 to 12 months): Neither significant changes in the hematochemical parameters nor side effects of any kind were observed
